This experiment has as its target T1, rat NaPi-2b (Rattus norvegicus, UniProt Q9JJ09).
T1 construct: expressed in transfected cells; host or cells: Xenopus oocytes injected with cRNA
T1 sequence (Q9JJ09 1-695): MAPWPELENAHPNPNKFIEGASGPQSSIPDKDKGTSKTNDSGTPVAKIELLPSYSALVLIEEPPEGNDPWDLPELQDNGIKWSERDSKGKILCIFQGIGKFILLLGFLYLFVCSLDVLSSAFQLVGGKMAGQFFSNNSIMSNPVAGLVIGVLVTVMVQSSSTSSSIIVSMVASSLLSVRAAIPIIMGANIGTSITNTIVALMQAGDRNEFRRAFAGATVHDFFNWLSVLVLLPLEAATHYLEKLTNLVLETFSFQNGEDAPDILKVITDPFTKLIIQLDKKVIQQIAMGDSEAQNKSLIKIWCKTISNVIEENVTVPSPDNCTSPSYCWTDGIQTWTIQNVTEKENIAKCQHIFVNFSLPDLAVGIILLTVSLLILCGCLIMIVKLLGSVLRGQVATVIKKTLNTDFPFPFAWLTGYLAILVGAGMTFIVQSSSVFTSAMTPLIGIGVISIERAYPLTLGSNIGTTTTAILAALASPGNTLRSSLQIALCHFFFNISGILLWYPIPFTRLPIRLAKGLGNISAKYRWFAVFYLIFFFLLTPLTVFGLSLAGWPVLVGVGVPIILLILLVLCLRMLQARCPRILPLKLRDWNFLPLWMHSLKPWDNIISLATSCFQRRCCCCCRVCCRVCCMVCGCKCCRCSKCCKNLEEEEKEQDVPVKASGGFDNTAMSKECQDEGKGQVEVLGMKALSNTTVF
Put plainly: Sodium-dependent phosphate uptake of Xenopus oocytes which expressed NaPi-2b (32P). In kind it is cell-based. Particulars: for inhibition at 300 µM: phosphate uptake, oocytes expressing rat NaPi-2b, determined from inhibition curve; for pIC50: Xenopus oocytes expressing rat NaPi-2b, 32P radioactive phosphorus, read-out: IC50 (phosphate uptake inhibitory activity). In a few lines: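 Percent inhibition at 300 μM and 100 μM comes from the same inhibition curve of 32P uptake. Assay used oocytes expressing rat NaPi-2b after 2 days of culture.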

pIC50: −log10 of the molar value.

One may read the inhibition as the percentage by which the read-out fell short of the control. Higher therefore signals strong suppression. `O=C(Nc1ccccc1C(=O)N/N=C/c1ccccc1F)c1ccccc1F` [Compound 236, 2-Fluoro-N-[2-(2-fluoro-benzylidene-hydrazinocarbonyl)-phenyl]-benzamide] returned an inhibition at 300 µM of 49.4%. Still for that read-out and setting: the result for `O=C(Nc1ccccc1C(=O)N/N=C/c1cccc(F)c1)c1ccccc1F` [Compound 237, 2-Fluoro-N-[2-(3-fluoro-benzylidene-hydrazinocarbonyl)-phenyl]-benzamide] reads 33.1%; that for `Cc1cccc(/C=N/NC(=O)c2ccccc2NC(=O)c2ccccc2F)c1` [Compound 238, 2-Fluoro-N-[2-(3-methyl-benzylidene-hydrazinocarbonyl)-phenyl]-benzamide], 30.6%. On the same count and under the same terms, with `CC(C)(C)c1cccc(/C=N/NC(=O)c2ccccc2NC(=O)c2ccccc2F)c1O` [Compound 239, N-[2-(3-Tert-butyl-2-hydroxy-benzylidene-hydrazinocarbonyl)-phenyl]-2-fluoro-benzamide] the figure was 59.1%. On the same count and under the same terms, with `COc1ccc(C(=O)Nc2ccccc2C(=O)N/N=C/c2ccc([N+](=O)[O-])cc2)cc1OC` [Compound 240, 3,4-Dimethoxy-N-[2-(4-nitro-benzylidene-hydrazinocarbonyl)-phenyl]-benzamide] the figure was 37.9%; with `CCN(CC)c1ccc(/C=N/NC(=O)c2ccccc2NC(=O)c2ccc(OC)c(OC)c2)cc1` [Compound 241, N-[2-(4-Diethylamino-benzylidene-hydrazinocarbonyl)-phenyl]-3,4-dimethoxy-benzamide], 46.9%; with `COc1cc(OC)cc(C(=O)Nc2ccc(O)cc2C(=O)N/N=C/c2cccc(F)c2)c1` [Compound 242, N-[2-(3-Fluoro-benzylidene-hydrazinocarbonyl)-4-hydroxy-phenyl]-3,5-dimethoxy-benzamide], 37.6%. In turn, `COc1ccc(C(=O)Nc2ccc(Br)cc2C(=O)N/N=C/c2ccccn2)cc1OC` [Compound 243, N-[4-Bromo-2-(pyridin-2-ylmethylene-hydrazinocarbonyl)-phenyl]-3,4-dimethoxy-benzamide] had an inhibition at 300 µM of 50.2%.

For the molecule `COc1ccc(C(=O)Nc2ccc(Cl)cc2C(=O)N/N=C/c2ccccn2)cc1OC` [Compound 244, N-[4-Chloro-2-(pyridin-2-ylmethylene-hydrazinocarbonyl)-phenyl]-3,4-dimethoxy-benzamide], the inhibition at 300 µM is 30.7%. Molecule `COc1ccc(C(=O)Nc2ccccc2C(=O)N/N=C/c2ccccn2)cc1OC` [Compound 245] gave an inhibition at 300 µM of 31.7%.

Molecule `COc1ccc(C(=O)Nc2ccc(Cl)cc2C(=O)N/N=C/c2cccc(C)n2)cc1OC` [Compound 246, N-[4-Chloro-2-(6-methyl-pyridin-2-ylmethylene-hydrazinocarbonyl)-phenyl]-3,4-dimethoxy-benzamide] gave an inhibition at 300 µM of 32.6%. Same read-out and setting: with `COc1ccc(C(=O)Nc2ccccc2C(=O)N/N=C/c2cccc(C)n2)cc1OC` [Compound 247, 3,4-Dimethoxy-N-[2-(6-methyl-pyridin-2-ylmethylene-hydrazinocarbonyl)-phenyl]-benzamide] the figure was 34.8%; with `Cc1cccc(C=NNC(=O)c2cc(Br)ccc2NC(=O)c2ccc(C(C)(C)C)cc2)c1` [Compound 248, N-[4-Bromo-2-(3-methyl-benzylidene-hydrazinocarbonyl)-phenyl]-4-tert-butyl-benzamide], 30.3%. Regarding `C/C(=N\NC(=O)c1ccccc1NC(=O)c1ccncc1)c1cccc(C)c1` [Compound 249, N-[2-(1-m-Toluyl-ethylidene-hydrazinocarbonyl)-phenyl]-isonicotinamide], the inhibition at 300 µM turned out to be 41.6%. In turn, `C/C(=N\NC(=O)c1cc(Cl)ccc1NC(=O)c1cccnc1)c1cccc(C)c1` [Compound 250, N-[4-Chloro-2-(1-m-toluyl-ethylidene-hydrazinocarbonyl)-phenyl]-nicotinamide] yielded an inhibition at 300 µM of 37.9%. Turning to `C/C(=N\NC(=O)c1ccccc1NC(=O)c1cccnc1)c1ccc(C)cc1` [Compound 251, N-[2-(1-p-Toluyl-ethylidene-hydrazinocarbonyl)-phenyl]-nicotinamide], the inhibition at 300 µM turned out to be 31.2%. One may read the pIC50 as the negative decadic logarithm of the IC50, by convention in mol/L. On to `O=C(Nc1ccc(Br)cc1C(=O)N/N=C/c1cccc(F)c1)c1ccc(CSc2ccncc2)cc1` [Compound 255, N-[4-Bromo-2-(3-fluoro-benzylidene-hydrazinocarbonyl)-phenyl]-4-(pyridin-4-ylsulfanylmethyl)-benzamide], for which the negative logarithm of the IC50 (pIC50) was 5.45. Same read-out and setting: the result for `O=C(Nc1ccc(Br)cc1C(=O)N/N=C/c1ccc(F)cc1)c1ccc(CSc2ccncc2)cc1` [Compound 256, N-[4-Bromo-2-(4-fluoro-benzylidene-hydrazinocarbonyl)-phenyl]-4-(pyridin-4-ylsulfanylmethyl)-benzamide] reads above 5.00. Still for that read-out and setting: with `Cc1cccc(/C=N/NC(=O)c2cc(Br)ccc2NC(=O)c2ccc(CSc3ccncc3)cc2)c1` [Compound 257, N-[4-Bromo-2-(3-methyl-benzylidene-hydrazinocarbonyl)-phenyl]-4-(pyridin-4-ylsulfanylmethyl)-benzamide] the figure was above 5.52; with `Cc1ccc(/C=N/NC(=O)c2cc(Br)ccc2NC(=O)c2ccc(CSc3ccncc3)cc2)cc1` [Compound 258, N-[4-Bromo-2-(4-methyl-benzylidene-hydrazinocarbonyl)-phenyl]-4-(pyridin-4-ylsulfanylmethyl)-benzamide], above 5.52. On the same count and under the same terms, with `Cc1ccc(/C=N/NC(=O)c2cc(Br)ccc2NC(=O)c2ccc(CSc3ccncc3)cc2)cc1C` [Compound 259, N-[4-Bromo-2-(3,4-dimethyl-benzylidene-hydrazinocarbonyl)-phenyl]-4-(pyridin-4-ylsulfanylmethyl)-benzamide] the figure was above 5.52; with `O=C(Nc1ccc(Br)cc1C(=O)N/N=C/c1cccc(F)c1)c1ccc(CSCCO)cc1` [Compound 261, N-[4-Bromo-2-(3-fluoro-benzylidene-hydrazinocarbonyl)-phenyl]-4-(2-hydroxy-ethylsulfanylmethyl)-benzamide], above 5.52; with `Cc1cccc(/C=N/NC(=O)c2cc(Br)ccc2NC(=O)c2ccc(CSCCO)cc2)c1` [Compound 263, N-[4-Bromo-2-(3-methyl-benzylidene-hydrazinocarbonyl)-phenyl]-4-(2-hydroxy-ethylsulfanylmethyl)-benzamide], above 6.00.

As to `Cc1ccc(/C=N/NC(=O)c2cc(Br)ccc2NC(=O)c2ccc(CSCCO)cc2)cc1C` [Compound 265, N-[4-Bromo-2-(3,4-dimethyl-benzylidene-hydrazinocarbonyl)-phenyl]-4-(2-hydroxy-ethylsulfanylmethyl)-benzamide], the pIC50 is above 6.00. The same measure, in the same setting: with `O=C(Nc1ccc(Br)cc1C(=O)N/N=C/c1ccc(Cl)c(C(F)(F)F)c1)c1ccc(CSCCO)cc1` [Compound 266, N-[4-Bromo-2-(4-chloro-3-trifluoromethyl-benzylidene-hydrazinocarbonyl)-phenyl]-4-(2-hydroxy-ethylsulfanylmethyl)-benzamide] the figure was above 6.00; with `Cc1ccc(/C=N/NC(=O)c2cc(Br)ccc2NC(=O)c2cccc(CSc3nc[nH]n3)c2)cc1C` [Compound 267, N-[4-Bromo-2-(3,4-dimethyl-benzylidene-hydrazinocarbonyl)-phenyl]-3-(1H-[1,2,4]triazol-3-ylsulfanylmethyl)-benzamide], 6.37. The same measure, in the same setting: the result for `Cc1ccc(/C=N/NC(=O)c2cc(Br)ccc2NC(=O)c2cccc(CSc3nc[nH]n3)c2)cc1` [Compound 268, N-[4-Bromo-2-(4-methyl-benzylidene-hydrazinocarbonyl)-phenyl]-3-(1H-[1,2,4]triazol-3-ylsulfanylmethyl)-benzamide] reads 5.99; that for `Cc1cccc(/C=N/NC(=O)c2cc(Br)ccc2NC(=O)c2cccc(CSc3nc[nH]n3)c2)c1` [Compound 269, N-[4-Bromo-2-(3-methyl-benzylidene-hydrazinocarbonyl)-phenyl]-3-(1H-[1,2,4]triazol-3-ylsulfanylmethyl)-benzamide], 5.66.

On to `O=C(Nc1ccc(Br)cc1C(=O)N/N=C/c1ccc(F)cc1)c1cccc(CSc2nc[nH]n2)c1` [Compound 270, N-[4-Bromo-2-(4-fluoro-benzylidene-hydrazinocarbonyl)-phenyl]-3-(1H-[1,2,4]triazol-3-ylsulfanylmethyl)-benzamide], for which the pIC50 was 5.30. Same read-out and setting: with `O=C(Nc1ccc(Br)cc1C(=O)N/N=C/c1cccc(F)c1)c1cccc(CSc2nc[nH]n2)c1` [Compound 271, N-[4-Bromo-2-(3-fluoro-benzylidene-hydrazinocarbonyl)-phenyl]-3-(1H-[1,2,4]triazol-3-ylsulfanylmethyl)-benzamide] the figure was 6.68; with `O=C(Nc1ccc(Br)cc1C(=O)N/N=C/c1ccc(Cl)c(C(F)(F)F)c1)c1cccc(CSc2nc[nH]n2)c1` [Compound 272, N-[4-Bromo-2-(4-chloro-3-trifluoromethyl-benzylidene-hydrazinocarbonyl)-phenyl]-3-(1H-[1,2,4]triazol-3-ylsulfanylmethyl)-benzamide], 6.33.

Values taken from patent US8134015B2, “Compound inhibiting in vivo phosphorous transport and medicine containing the same” (Kyowa Hakko Kirin Co., Ltd., priority 2003, dated 2012).
